The values below come from patent publication US20260008775A1, “AZOLE MODULATORS OF CHOLESTEROL BIOSYNTHESIS AND THEIR USE FOR PROMOTING REMYELINATION” (GENENTECH, INC., priority 2022, published 2026).

Each structure is given as a SMILES string.

Experiment [1] addresses human emopamil binding protein and human 7-dehydrocholesterol reductase (hEBP-DHCR7) (Homo sapiens (Human), UniProt Q15125). The experiment can be described thus: hEBP-DHCR7 radioligand binding assay (filter binding, membranes of co-expressing HEK293 cells). The note with it: competition with [3H] radioligand, 8 doses 0.06 to 5000 nM, Ki calculated from IC50. A digest of the protocol: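 Membranes from HEK293 cells transiently co-expressing hEBP and DHCR7 (10 μg/well) were incubated for 3 h at 22 °C with tritiated spiro-sulfone radioligand (added at 25 nM) and compound at 1 μM or 0.06–5000 nM. Filtration and scintillation counting followed. Inhibition was normalised to 5 μM unlabelled ligand and DMSO, and Ki was derived as IC50/(1+[L]/Kd).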

Experiment [2] relates to zymostenol accumulation (EBP) in EpiSC-derived OPCs. Put plainly: GC/MS-based sterol profiling, zymostenol accumulation in EpiSC-derived OPCs. In kind it is cell-based, mouse. The note with it: Mus musculus, 24 h, EpiSC-derived OPCs, 24 hr, 8 doses from 0.15 nM to 333 nM; read-out: Mouse Zymostenol GCMS EC50. A digest of the protocol:
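Mouse epiblast stem cell-derived OPCs plated at 100,000 cells/well in growth-factor-free N2B27 and treated 24 h. Sterols extracted by modified Folch wash, silylated with BSTFA, and quantified by electron-impact GC/MS against cholesterol-d7 (zymostenol ion 458). Zymostenol normalised to 24 h 100 nM positive-control reference.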

In another experiment the test system is EpiSC-derived OPCs. The experiment can be described thus: In vitro phenotypic screening of OPCs, MBP high-content imaging (percentage of oligodendrocytes). In kind it is cell-based, mouse. The note with it: Mus musculus, 72 h, 3 days, MBP stain, dose-response 0.5 nM to 1000 nM; read-out: OPC EC50. How it is done: To assess effects of treatments on OPCs, all treatments were assayed in two or more independent platings of epiblast stem cell-derived OPCs (EpiSC). EpiSC-derived OPCs were obtained using in vitro differentiation protocols and culture conditions described previously (Najm et al, 2011, Nature Methods). OPCs were expanded and frozen down in aliquots. OPCs were thawed into growth conditions for at least one passage before use in further assays.
EpiSC-derived OPCs were grown and expanded in poly-L-ornithine (PO) and laminin-coated flasks in N2B27 media (DMEM/F12 (Gibco), N2-MAX (R&D Systems), B-27 (ThermoFisher), and GlutaMax (Gibco)) supplemented with FGF2 (10 μg/mL, R&D systems, 233-FB-025) and PDGF-AA (10 μg/mL, R&D systems, 233-AA-050) before harvesting for experiments. The cells were seeded onto poly-L-ornithine or poly-D-lysine coated CellCarrier Ultra plates (PerkinElmer) coated with laminin (Sigma, L2020) at a density of 150,000/cm^2 in N2B27 media without growth factors. For dose-response testing, a 1000× compound stock in dimethyl sulphoxide (DMSO) was added to assay plates, resulting in 8-point dose curves with final concentrations between 1000 nM and 0.5 nM. Positive controls and DMSO vehicle controls were included in each assay plate. Cells were incubated under standard conditions (37° C., 5% CO2) for 3 days and fixed with 4% paraformaldehyde (PFA) in phosphate buffered saline (PBS) for 20 min. Fixed plates were washed with PBS, permeabilized with 0.1% Triton X-100, and blocked with 10% donkey serum (v/v) in PBS for 40 min. Then, cells were labelled with MBP antibodies (Abcam, ab7349; 1:200) for 2 h at room temperature, washed with PBS, and stained with Alexa Fluor conjugated secondary antibodies (1:500) for 45 min. Nuclei were visualized by DAPI staining (Sigma; […]), followed by further PBS washes.
Cells and cell culture plates were imaged on the Operetta High Content Imaging and Analysis system (PerkinElmer). Analysis (PerkinElmer Harmony and Columbus software) began by identifying intact nuclei stained by DAPI. The peri-nuclear region of each cell was then cross-referenced with the mature myelin protein (MBP) stain to identify oligodendrocyte nuclei, and from this the percentage of oligodendrocytes was calculated. EC50 values were calculated using The Levenberg-Marquardt algorithm to fit a Hill equation to dose-response data (0.5 nM to 1000 nM).

Sequence of human emopamil binding protein and human 7-dehydrocholesterol reductase (hEBP-DHCR7) (Q15125 whole entry): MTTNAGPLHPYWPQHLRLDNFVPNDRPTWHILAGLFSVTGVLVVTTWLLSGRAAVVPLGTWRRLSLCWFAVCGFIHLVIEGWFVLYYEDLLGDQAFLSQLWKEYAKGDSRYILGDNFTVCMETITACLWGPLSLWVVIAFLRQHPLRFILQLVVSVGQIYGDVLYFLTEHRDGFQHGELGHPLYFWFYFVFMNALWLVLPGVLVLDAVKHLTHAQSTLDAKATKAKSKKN

As a reminder, the Ki is a dissociation constant, usually derived from enzyme kinetics or from competition with a known ligand. Usually EC50 stands for the concentration at which the effect is half-maximal. For `CC(C)n1nc(-c2ccc(F)cc2)cc1[C@H]1[C@@H]2C[C@@H](N3CCCOCC3)C[C@@H]21` [Compound 184*, 4-((1R,3s,5S,6r)-6-(3-(4-fluorophenyl)-1-isopropyl-1H-pyrazol-5-yl)bicyclo[3.1.0]hexan-3-yl)-1,4-oxazepane], the inhibition constant (Ki) in experiment [1] is 21.3 nM. For the same compound, the EC50 was 27.1 nM in experiment [2] and 55.9 nM with EpiSC-derived OPCs.
Take `CC(C)n1nc(-c2ccc(C#N)cc2)cc1[C@H]1[C@@H]2C[C@H](N3CCCOCC3)C[C@@H]21` [Compound 179*, 4-(5-((1R,3r,5S,6r)-3-(1,4-Oxazepan-4-yl)bicyclo[3.1.0]hexan-6-yl)-1-isopropyl-1H-pyrazol-3-yl)benzonitrile]: the inhibitory constant (Ki) in experiment [1] is 10.9 nM. For the same compound, the EC50 was determined as 0.952 nM in experiment [2] and 26.4 nM in the experiment with EpiSC-derived OPCs.
With `CC(C)n1nc(-c2cncc(F)c2)cc1[C@H]1[C@@H]2C[C@H](N3CCCOCC3)C[C@@H]21` [Compound 187*, 4-((1R,3r,5S,6r)-6-(3-(5-Fluoropyridin-3-yl)-1-isopropyl-1H-pyrazol-5-yl)bicyclo[3.1.0]hexan-3-yl)-1,4-oxazepane], in experiment [1], the Ki was 20.3 nM. In addition, the results for the EC50 (in experiment [2]; in the experiment with EpiSC-derived OPCs) were 7.75 nM and 37.3 nM, respectively.
As for `CC(C)n1nc(-c2cc(C(F)(F)F)ncn2)cc1[C@H]1[C@@H]2C[C@H](N3CCOC[C@H]3C)C[C@@H]21` [Compound 106, (R)-4-((1R,3r,5S,6R)-6-(1-Isopropyl-3-(6-(trifluoromethyl)pyrimidin-4-yl)-1H-pyrazol-5-yl)bicyclo[3.1.0]hexan-3-yl)-3-methylmorpholine], the Ki in experiment [1] was 15.1 nM. Besides, the EC50 was 3.87 nM in experiment [2] and 11.4 nM in the experiment on EpiSC-derived OPCs.
With `CCn1nc(-c2ccc(C(F)(F)F)nc2)nc1[C@H]1CC[C@H](N2CCCOCC2)CC1` [8*, 4-((1r,4r)-4-(1-ethyl-3-(6-(trifluoromethyl)pyridin-3-yl)-1H-1,2,4-triazol-5-yl)cyclohexyl)-1,4-oxazepane], the Ki in experiment [1] was 38.2 nM. Further, the results for the concentration for a half-maximal effect (EC50) (in experiment [2]; in the experiment on EpiSC-derived OPCs) were 44.8 nM and 280 nM, respectively.
Consider `CC(C)n1nc(-c2cccc(OC(F)(F)F)c2)cc1[C@H]1[C@@H]2C[C@H](N3CCCOCC3)C[C@@H]21` [Compound 189*, 4-((1R,3r,5S,6r)-6-(1-isopropyl-3-(3-(trifluoromethoxy)phenyl)-1H-pyrazol-5-yl)bicyclo[3.1.0]hexan-3-yl)-1,4-oxazepane], for which, in experiment [1], the inhibitory constant (Ki) is 9.14 nM. The concentration giving a half-maximal response (EC50) in experiment [2] worked out at 3.43 nM; in the experiment on EpiSC-derived OPCs, 3.32 nM.
For `CC(C)n1nc(-c2cccc(C(F)(F)F)c2)nc1[C@H]1[C@@H]2C[C@H](N3CCOC[C@H]3C)C[C@@H]21` (single isomer, unassigned) [70*], in that order: 8.76 nM, 6.43 nM and 0.65 nM.
`CC(C)n1nc(-c2cncc(C(F)(F)F)c2)cc1[C@H]1[C@@H]2C[C@H](N3CCOC(C)(C)C3)C[C@@H]21` [Compound 34, 4-((1R,3r,5S,6r)-6-(1-isopropyl-3-(5-(trifluoromethyl)pyridin-3-yl)-1H-pyrazol-5-yl)bicyclo[3.1.0]hexan-3-yl)-2,2-dimethylmorpholine]: in experiment [1], the inhibition constant Ki was 34.5 nM. Further, the EC50 turned out to be 52 nM in experiment [2] and 354 nM in the experiment on EpiSC-derived OPCs.
Consider `CC[C@@H]1CN([C@H]2CC[C@@H](c3nc(-c4cnc(C(F)(F)F)nc4)nn3C(C)C)C2)CCO1` [Compound 152, (R)-2-Ethyl-4-((1S,3R)-3-(1-isopropyl-3-(2-(trifluoromethyl)pyrimidin-5-yl)-1H-1,2,4-triazol-5-yl)cyclopentyl)morpholine], for which the inhibition constant (Ki) in experiment [1] is 3420 nM. The EC50 in experiment [2] turned out to be 2.14 nM; with EpiSC-derived OPCs it was 17 nM.
Turning to `CC(C)n1nc(-c2ccc(C(F)(F)F)cc2)cc1[C@H]1[C@@H]2C[C@@H](N3CCCOCC3)C[C@@H]21` [Compound 182*, 4-((1R,3s,5S,6r)-6-(1-isopropyl-3-(4-(trifluoromethyl)phenyl)-1H-pyrazol-5-yl)bicyclo[3.1.0]hexan-3-yl)-1,4-oxazepane], in experiment [1], the Ki was 15.8 nM. Moreover, the values for the EC50 (in experiment [2]; with EpiSC-derived OPCs) were 18.5 nM and 36.9 nM, respectively.
For `CC(C)n1nc(-c2cccc(C(F)(F)F)c2)nc1[C@@H]1CC[C@H](N2CCOCC2)C1` (single isomer, unassigned) [22*], in that order: 10.9 nM, 1.33 nM and 6.73 nM.
As for `CC(C)n1nc(-c2cncc(C(F)(F)F)c2)cc1[C@H]1CC[C@H](N2CCOCC2)C1` (single isomer, unassigned) [58*], the inhibitory constant (Ki) in experiment [1] was 26.2 nM. Moreover, the concentration for a half-maximal effect (EC50) in experiment [2] was 25.1 nM; in the experiment on EpiSC-derived OPCs, 138 nM.
As to `CC(C)n1nc(-c2cncc(C(F)(F)F)c2)cc1[C@H]1[C@@H]2C[C@@H](N3CCO[C@H](C)C3)C[C@@H]21` (single isomer, unassigned) [40*], in experiment [1], the Ki was 111 nM. Besides, the EC50 in experiment [2] is 78 nM; in the experiment with EpiSC-derived OPCs, 325 nM.
As to `CC(C)n1nc(-c2cncc(C(F)(F)F)c2)nc1[C@H]1[C@@H]2C[C@@H](N3CCO[C@H](C)C3)C[C@@H]21` [Compound 162, (R)-4-((1R,3s,5S,6R)-6-(1-Isopropyl-3-(5-(trifluoromethyl)pyridin-3-yl)-1H-1,2,4-triazol-5-yl)bicyclo[3.1.0]hexan-3-yl)-2-methylmorpholine], the Ki in experiment [1] was 838 nM. For the same compound, the figures for the EC50 (in experiment [2]; with EpiSC-derived OPCs) were 371 nM and 838 nM, respectively.
With `CC(C)n1nc(-c2ccc(C#N)cc2)cc1[C@H]1[C@@H]2C[C@@H](N3CCCOCC3)C[C@@H]21` [Compound 180*, 4-(5-((1R,3s,5S,6r)-3-(1,4-oxazepan-4-yl)bicyclo[3.1.0]hexan-6-yl)-1-isopropyl-1H-pyrazol-3-yl)benzonitrile], in experiment [1], the inhibitory constant (Ki) is 30.6 nM. Moreover, the EC50 was determined as 24.5 nM in experiment [2] and 124 nM in the experiment on EpiSC-derived OPCs.
On the same counts, the results for `CC(C)n1nc(-c2ccc(C(F)(F)F)cc2)cc1[C@H]1[C@@H]2C[C@H](N3CCCOCC3)C[C@@H]21` [Compound 181*, 4-((1R,3r,5S,6r)-6-(1-Isopropyl-3-(4-(trifluoromethyl)phenyl)-1H-pyrazol-5-yl)bicyclo[3.1.0]hexan-3-yl)-1,4-oxazepane] are 10.1 nM, 7 nM and 12.4 nM.
Regarding `CC(C)n1nc(-c2ccc(C(F)(F)F)nc2)cc1[C@H]1[C@@H]2C[C@H](N3CCCOCC3)C[C@@H]21` [Compound 48, 4-((1R,3S,5S,6R)-6-(1-Isopropyl-3-(6-(trifluoromethyl)pyridin-3-yl)-1H-pyrazol-5-yl)bicyclo[3.1.0]hexan-3-yl)-1,4-oxazepane], the Ki in experiment [1] was 18.4 nM. In addition, the EC50 was determined as 7.28 nM in experiment [2] and 11.6 nM in the experiment with EpiSC-derived OPCs.
On to `CC(C)n1nc(-c2cncc(OC(F)F)c2)nc1[C@H]1[C@@H]2C[C@H](N3CCCOCC3)C[C@@H]21` [Compound 69, 4-((1R,3r,5S,6r)-6-(3-(5-(Difluoromethoxy)pyridin-3-yl)-1-isopropyl-1H-1,2,4-triazol-5-yl)bicyclo[3.1.0]hexan-3-yl)-1,4-oxazepane], for which the Ki in experiment [1] is 27.9 nM. Besides, the EC50 in experiment [2] worked out at 8.19 nM; in the experiment with EpiSC-derived OPCs, 27.3 nM.
`CC(C)n1nc(-c2cncc(Cl)c2)cc1[C@H]1[C@@H]2C[C@@H](N3CCCOCC3)C[C@@H]21` [Compound 177*, 4-((1R,3s,5S,6r)-6-(3-(5-Chloropyridin-3-yl)-1-isopropyl-1H-pyrazol-5-yl)bicyclo[3.1.0]hexan-3-yl)-1,4-oxazepane]: the inhibition constant Ki in experiment [1] is 15.5 nM. Moreover, the figures for the EC50 (in experiment [2]; in the experiment with EpiSC-derived OPCs) were 4.16 nM and 9.82 nM, respectively.
